Data set [1] concerns CMV-specific T-cell products. As to the kind of experiment: CMV-specific stimulation at day 21, intracellular cytokines by flow cytometry. Type of data set: cell-based, human. The method, then:
FIG. 2: Functional profiles of CMV-specific T-cell products with disrupted FKBP12 CMV-specific stimulation of T-cell products at day 21 of culture using antigen-presenting cells (autologous lymphoblastic B-cell lines) pulsed with overlapping peptide pools of CMVIE-1 and CMVpp65 (6 h stimulation). Cytokines were captured in T-cells by addition of Brefeldin A after 1 h of stimulation and cells were stained using a fixation/permeabilization kit and fluorescently 1a-belled antibodies. Data were acquired by multicolor flow cytometry. Immunosuppressants were added where indicated at the following clinically relevant doses: Tac = 6 ng/ml Tacrolimus; CsA ═ 120 ng/ml Cyclosporine A; Tac/Pred/MPA = 6 ng/ml Tacrolimus + 0.57 µg/ml Prednisolone + 2.7 µg/ml Mycophenolic acid. Stars symbolize p-values < 0.05, which were determined by tests for normal distribution (Shapiro-Wilk and Kolmogorov-Smirnov tests), followed by one-way ANOVA (normally distributed data sets) or Friedman test (not normally distributed data sets) and paired t-tests (normally distributed data sets) or Wilcoxon matched pairs signed rank tests (not normally distributed data sets) as posttests. […]
(In general: In flow cytometry, cells or beads pass a laser one at a time.)

For data set [2], the system named is target cells loaded with SARS-CoV-2 peptides.
In data set [3] the test system is Regulatory T cells. As to the kind of experiment: Treg expansion in medium with or without calcineurin inhibitors. Type of data set: cell-based, human. The settings on record: Tac 6 ng/ml. The method, then:
Edited and control Treg cells were subsequently expanded in medium with or without different calcineurin inhibitors and subsequently analysed for cell expansion (A) and with flow cytometry (B+C). […] CTLA4 is known to suppress T cells and modulate pro-inflammatory responses by dendritic cells. […] Light bars are untouched expanded Treg, dark bars are FKBP12^k.o.expanded Treg. Tac was used at 6 ng/ml, CsA was used at 125 ng/ml, which corresponds to pharmacological doses that may, e.g., found in patient serum.
FKBP12^KO and control Treg cells were subsequently expanded in medium with or without different calcineurin inhibitors and subsequently analysed for cell expansion (FIG. 11 A) and with flow cytometry (FIG. 11 B+C). […] CTLA4 is known to suppress T cells and modulate pro-inflammatory responses by dendritic cells.

For data set [4], the system named is K562 cells. As to the kind of experiment: NK92 cytotoxicity in co-culture with K562. Type of data set: cell-based, human. Conditions: 1:1 with K562, n = 1. The method, then: FIG. 19: Killing efficiency pf FKBP12^KO NK cells NK92 were electroporated with Cas9 protein and sgRNA#1(Table 1). After 5 days they were incubated with K562 cells at a ratio of 1:1. Killing capacity was calculated by the reduction in frequency of K562 cells. n = 1.
We performed a proof-of-principle experiment to confirm feasibility of FKBP12^KO in the NK cell line NK92. Four days prior to the experiment, FKBP12^KO NK92 cells were electroporated with Cas9 + FKBP12 sgRNA#1 (Table 1). NK cell cytotoxicity was assessed by co-culture with the MHC class I deficient erythroleukemia cell line K562. To this end, NK92 and CFSE-labeled K562 cells were mixed at a 1:1 ratio. After a total of 8 hours, the reaction was stopped by washing with cold 1X PBS. The cells were stained with Life Dead UV before fixation and permeabilization (IC Fix/Perm Kit, Thermo Fisher). Fixation was performed for 30 minutes at RT. The stained cells were analyzed with a Cytoflex LX. Analysis was performed with FlowJo v10.

Entries after “also recorded” stand apart in the source; their conditions may differ.

Turning to `C=CC[C@@H]1/C=C(\C)C[C@H](C)C[C@H](OC)[C@H]2O[C@@](O)(C(=O)C(=O)N3CCCC[C@H]3C(=O)O[C@H](/C(C)=C/[C@@H]3CC[C@@H](O)[C@H](OC)C3)[C@H](C)[C@@H](O)CC1=O)[C@H](C)C[C@@H]2OC` [Tacrolimus], in data set [1] (effect of Tacrolimus on T-cells of CMV-TCPs), the “proportion of IFNγ-producers” value is reported as “significantly reduced”. Besides, the “T-cell-mediated cytotoxic killing of target cells” value in data set [2] was “not affected”. Moreover, the “proliferation of untouched Tregs” value in data set [3] is listed as “reduced the proliferation”. Also, the “killing efficiency in non-edited NK92 cells” value in data set [4] was “decreased killing efficiency”.

B1: sgRNA#2: FKBP12-specific guide RNA targeting SEQ ID NO: 1; full sequence SEQ ID NO: 17 (nucleic acid)
guide: GGGCGCACCUUCCCCAAGCGGUUUUAGAGCUAGAAAUAGCAAGUUAAAAUAAGGCUAGUCCGUUAUCAACUUGAAAAAGUGGCACCGAGUCGGUGC
modifications: synthetic chemically modified sgRNA, pattern not given here
For B1, the “cytokine producers / T-cell function in the presence of Tacrolimus” value in data set [1] (6 ng/ml Tacrolimus, TCPs edited with the named sgRNA) is listed as “superior function in maintaining T-cell function; also recorded: retained physiological levels of cytokine producers”.
